The values that follow come from PMC10059083, “Design, Synthesis, and Biological Evaluation of Novel Hydroxamic Acid-Based Organoselenium Hybrids” (Pharmaceuticals, 2023).

Experiment [1] concerns C. albicans. In words: Agar diffusion assay, C. albicans. The class given is cell-based, Candida albicans. The following applies: for zone of inhibition at 20 µM: Candida albicans, read-out: C. albicans ZID (inhibition zone diameter); for C. albicans IA% (activity index): ratio of inhibition zone of compound to that of positive control (clotrimazole).
Experiment [2] concerns C. albicans. In words: MIC by microdilution, C. albicans. The class given is cell-based. Conditions: Candida albicans; microdilution method; read-out: MIC C. albicans. The source says: (§1) The encouraging antitumor properties of the OSe compounds motivated us to evaluate their corresponding antimicrobial activities against the C. albicans fungal strain, S. aureus Gram-positive bacteria, and E. coli Gram-negative bacteria. Therefore, we applied the agar diffusion and minimum inhibitory concentration (MIC) methods using clotrimazole antifungal and ampicillin antibacterial drugs as standards.
The products’ antimicrobial properties were examined according to the previously reported method, via agar well diffusion assay against E. coli, S. aureus, and C. albicans. A microdilution method was also used to record MICs (M), following the previously reported procedure. Experimental details can be found in the Supplementary Materials.
Briefly, a concentration of 1 mM was prepared for each compound by dissolving in DMSO. Paper discs of standard size […] were sterilized in an autoclave and soaked in 9 µL of the test compounds, and placed in the Petri dishes, which in turn contain a nutrient media (agar 9 g, peptone 5 g, and beef extract 3 g) seeded with the dedicated strain. Incubation lasted for 13 h at 36 0C. […]
Background: Dilution methods test growth across graded concentrations, often in twofold steps.

The subject of experiment [3] is WI-38 cells. In words: MTT cytotoxicity assay, normal lung fibroblast WI-38 cells. The class given is cell-based. Conditions: Homo sapiens, WI-38, 24 h, read-out: WI38 IC50. The source says:
(§2) Recently, OSe agents have attracted interest due to their potential chemoprotective and antitumor properties. […] Therefore, we estimated the OSe agents’ antiproliferative activities against different cancer cells, i.e., MCF-7 and HepG2 cells and healthy lung fibroblast WI-38 cells, using the MTT assay. The drug doxorubicin was employed as the standard. The corresponding therapeutic indices (TI) are described as the proportion of the WI38 cells IC50 to the IC50 of the cancer cell (e.g., MCF-7 and HepG2) (Table 1).
(§3) The products’ anticancer activity was examined using the MTT assay against breast (MCF-7) carcinoma cells, liver (HepG2), and normal WI-38 cells, following the previously reported method. Experimental details can be found in the Supplementary Materials.
(§4) 1.1. The biological assays
(§5) 1.1.1. The anticancer activity
(§6) The breast adenocarcinoma (MCF-7), Hepatocellular carcinoma (HEPG-2), and normal fibroblast (WI-38) cells were obtained from ATCC via Holding company for biological products and vaccines (VACSERA), Cairo, Egypt. The reagents […] medium, MTT, DMSO, and fetal bovine serum was obtained from Sigma Aldrich. Dulbecco’s modified Eagle’s medium was used as the culture medium for the cells, and the cytotoxicity was evaluated using the reported MTT assay. Doxorubicin was used as the positive reference, and the IC50 values were obtained from the corresponding dose-response curve.
(§7) This colorimetric assay is based on converting the yellow tetrazolium bromide (MTT) to a purple formazan derivative by mitochondrial succinate dehydrogenase in viable cells. Cell lines were cultured in […] medium with 10% fetal bovine serum. Antibiotics added were 100 units/ml penicillin and 100µg/ml streptomycin at 37 C in a 5% Co2 incubator. The cell lines were seeded in a 96-well plate at a density of 1.0x10^4 cells/well. at 37 C for 48 h under 5% Co2. After incubation, the cells were treated with different concentrations of compounds and incubated for 13 […]
(§8) Finally, dimethyl sulfoxide (DMSO) in the volume of 100 µl is added to each well to dissolve the purple formazan formed. The colorimetric assay is measured and recorded at an absorbance of 570 […]
(§9) The percentage of the relative cell viability was calculated as (A570 of treated samples/A570 of the untreated sample) X 100. […]

Experiment [4] in a line: ABTS radical scavenging assay. Conditions: for antioxidant (scavenging) activity in the ABTS assay: compounds 50 µL, 1 mM in MeOH, ABTS solution 60 µL, absorbance at 734 nm. How it is done: (§10) The antioxidant activities of the OSe compounds were intensively investigated because these are usually the cause of their chemopreventive potency. Their redox activities were evaluated via DPPH and ABTS assays, using ascorbic acid as the standard. We spectrophotometrically measured the antioxidant efficiency of the OSe compounds by their ability to decolorise the DPPH^. and ABTS^. radicals at […] (Figure 2).
(§11) The compounds’ antioxidant properties were assessed by in vitro bioassays using DPPH and ABTS, following the reported method. Details are in the Supplementary Materials.
(§12) Figure 4 Estimation of the OSe compounds’ redox activities via DPPH and ABTS experiments. All tests are mean ± S.D. ABTS experiment: absorbance was followed at 734 nm for OSe compounds (50 µL, 1 mM in MeOH) and ABTS solution (60 µL). DPPH Absorbance was monitored at 517 nm for OSe compounds (200 µL, 1 mM in MeOH) and DPPH (400 µL) after 30 min. […]
1.1.3.2. The ABTS bioassay
The antioxidant activity of the investigated compounds was assessed using 2,2’-azino-bis(3-ethylbenzothiazoline-6-sulphonic acid (ABTS) method. The radical cation derived from ABTS was prepared by the reaction of 60 mM ABTS solution with 0.3 M manganese dioxide solution in 0.1M phosphate buffer, pH 7. Then, the mixture was shaken, centrifuged, filtered, and the absorbance (Acontrol ) of […]
the resulting green-blue solution (ABTS radical solution) was measured at wavelength 734 nm. Then, […] of 1 mg/ml test compound in phosphate-buffered methanol was added. The absorbance (Atest) was measured. The reduction in color intensity was expressed as % inhibition. The % inhibition for each […]
compound is calculated from the following equation
Inhibition% = (Acontrol-Asample)/(Acontrol)*100
Ascorbic acid (vitamin C) was used as a standard antioxidant (positive control). A blank sample was run […]
without ABTS and using MeOH/phosphate buffer (1:1) instead of the sample. A negative control sample […]
was run with MeOH/phosphate buffer (1:1) instead of a tested compound.

The subject of experiment [5] is S. aureus. As to the kind of experiment: Agar diffusion assay, S. aureus. The experiment is classed as cell-based, Staphylococcus aureus. Details: concentration or dose not given beside the values. Conditions: ratio of inhibition zone of compound to that of positive control (ampicillin).
Excerpt: as §1
The products’ antimicrobial properties were examined according to the previously reported method, via agar well diffusion assay against E. coli, S. aureus, and C. albicans. A microdilution method was also used to record MICs (M), following the previously reported procedure. Experimental details can be found in the Supplementary Materials. […]
1.1.2. The antimicrobial activity
The antimicrobial activities of the OSe compounds were evaluate d against C. albicans yeast as well as E. coli gram-negative and S. aureus gram-positive bacteria employing the agar well diffusion assay.
Briefly, a concentration of 1 mM was prepared for each compound by dissolving in DMSO. Paper discs of standard size […] were sterilized in an autoclave and soaked in 9 µL of the test compounds, and placed in the Petri dishes, which in turn contain a nutrient media (agar 9 g, peptone 5 g, and beef extract 3 g) seeded with the dedicated strain. Incubation lasted for 13 h at 36 0C.
Experiments were replicated three times and the antifungal clotrimazole and antibiotic ampicillin […]
For orientation: In agar diffusion tests the substance spreads into inoculated agar from a disc or well.

For experiment [6], the system named is S. aureus. In words: Agar diffusion assay, S. aureus. The experiment is classed as cell-based. The following applies: Staphylococcus aureus; 6-mm disks soaked with 20 μM of the OSe agents; read-out: S. aureus ZID (inhibition zone diameter).
The nature of experiment [7]: DPPH radical scavenging assay. The following applies: for antioxidant (scavenging) activity in the DPPH assay: compounds 200 µL, 1 mM in MeOH, DPPH 400 µL, 30 min, absorbance at 517 nm. As for the experimental part:
as §10, §11, §12
1.1.3. The antioxidant activity
1.1.3.1. The DPPH bioassay
The hydrogen atom or electron donation ability of the corresponding compounds was measured by estimating the bleaching of the purple color of a methanolic solution of DPPH [5]. This spectrophotometric assay uses stable DPPH. reagent. The sample was prepared by adding […] of the OSe compounds (1 mM in methanol) to […] DPPH in methanol. After 30 min of incubation in the dark, the absorbance was read against a blank at […]. Ascorbic acid (vitamin C) and ebselen were used as standard antioxidants (positive control). A blank sample was run without DPPH. A negative control sample was run using methanol instead of the sample. The radical scavenging activity was calculated using the following equation:
Inhibition%= (Ablank-Asample)/(Ablank)*100. […]

For experiment [8], the system named is MCF-7 cells. In words: MTT antiproliferative assay, MCF-7 cells. The class given is cell-based. Conditions: for IC50: Homo sapiens, MCF7, 24 h, read-out: MCF7 IC50; for MCF7 TI (therapeutic index): ratio of IC50 against WI38 cells to IC50 against MCF-7 cells.
Excerpt: as §2, §3, §4, §5, §6, §7, §8, §9
A general note: Formazan colour is commonly taken as a measure of viable cells.

Experiment [9] deals with HepG2 cells. In words: MTT antiproliferative assay, HepG2 cells. The experiment is classed as cell-based. The following applies: for IC50: Homo sapiens, HepG2, 24 h, read-out: HepG2 IC50; for HepG2 TI (therapeutic index): ratio of IC50 against WI38 cells to IC50 against HepG2 cells.
Excerpt: Recently, OSe agents have attracted interest due to their potential chemoprotective and antitumor properties. We have developed several OSe compounds with promising antioxidant, antimicrobial, and antitumor properties. Therefore, we estimated the OSe agents’ antiproliferative activities against different cancer cells, i.e., MCF-7 and HepG2 cells and healthy lung fibroblast WI-38 cells, using the MTT assay. The drug doxorubicin was employed as the standard. The corresponding therapeutic indices (TI) are described as the proportion of the WI38 cells IC50 to the IC50 of the cancer cell (e.g., MCF-7 and HepG2) (Table 1).
as §3, §4, §5, §6, §7
Finally, dimethyl sulfoxide (DMSO) in the volume of 100 µl is added to each well to dissolve the purple formazan formed. The colorimetric assay is measured and recorded at an absorbance of 570 nm using a plate reader (EXL 800, USA). The percentage of the relative cell viability was calculated as (A570 of treated samples/A570 of the untreated sample) X 100. […]

Values after ≈ are worked out from the molar mass of the structure shown. Where two headings read alike, the source gives them in different places.

What is called MIC is the lowest concentration that inhibits growth of the organism. Consider `Clc1ccccc1C(c1ccccc1)(c1ccccc1)n1ccnc1` [Clotrimazole, clotrimazole, reference compound], for which the zone of inhibition at 20 µM in experiment [1] (6-mm disks soaked with 20 μM of the OSe agents) is 24 mm. In addition, the “C. albicans IA% (activity index)” value in experiment [1] turned out to be 100%. Moreover, the minimal inhibitory concentration (MIC) in experiment [2] was 2 µM (≈ 0.69 µg/mL).

Broadly, the IC50 is the midpoint of a concentration-inhibition curve. Regarding `O=CNc1ccc([Se]CC(=O)NOCc2ccccc2)cc1` [Compound 10, N-(benzyloxy)-2-((4-formamidophenyl)selanyl)acetamide], in [3], the IC50 came out at 37.4 ± 2.6 µM. Moreover, the “antioxidant (scavenging) activity in the ABTS assay” value (“antioxidant … in the ABTS assay” below) in [4] was determined as 64.7%. Further, in experiment [1], the zone of inhibition at 20 µM was 7 mm and the “C. albicans IA% (activity index)” value was 29.2%. Moreover, the “S. aureus IA% (activity index)” value in experiment [5] amounted to 28.6%. Further, the zone of inhibition at 20 µM in experiment [6] was found to be 6 mm. The “antioxidant (scavenging) activity in the DPPH assay” value (shortened to “antioxidant … in the DPPH assay”) in experiment [7] stood at 64.2%. Besides, in experiment [8], the IC50 amounted to 49.3 ± 3.1 µM and the “MCF7 TI (therapeutic index)” value is given as 0.8. Besides, in [9], the IC50 is 83.4 ± 4.2 µM and the “HepG2 TI (therapeutic index)” value turned out to be 0.5.

For the compound `O=C(C[Se]c1ccc(N2C(=O)c3ccccc3C2=O)cc1)NOCc1ccccc1` [Compound 13, N-(benzyloxy)-2-((4-(1,3-dioxoisoindolin-2-yl)phenyl)selanyl)acetamide], in experiment [3], the IC50 is 61.6 ± 3.8 µM. For the same compound, the “antioxidant … in the ABTS assay” value in [4] is 87.0%. Besides, in experiment [1], the zone of inhibition at 20 µM was 2 mm and the “C. albicans IA% (activity index)” value was found to be 8.3%. Further, in [7], the “antioxidant … in the DPPH assay” value is on record as 89.4%. Besides, in experiment [8], the half-maximal inhibitory concentration (IC50) was determined as 91.6 ± 4.6 µM and the “MCF7 TI (therapeutic index)” value was 0.8. Moreover, in experiment [9], the IC50 was above 100 µM and the “HepG2 TI (therapeutic index)” value is given as 0.6.

For `O=C1O[C@H]([C@@H](O)CO)C(O)=C1O` [Vitamin C, ascorbic acid, reference compound], in [4], the “antioxidant … in the ABTS assay” value was determined as 88.4%. For the same compound, the half-maximal inhibitory concentration (IC50) in [4] (concentration causing 50% decrease in absorbance, ABTS assay) worked out at 28.16 ± 0.19 µM; in [7] (concentration causing 50% decrease in absorbance, DPPH assay), 19.18 ± 0.13 µM. Besides, the “antioxidant … in the DPPH assay” value in experiment [7] is listed as 94.5%.
